Several values for one entry are separate records, joined by “and”; a condition that tells them apart may be missing. Equal values may be shown once. Numbers after ± are expanded uncertainties.
Assays:
[1] = for thermal pressure coefficient: barogram technique
[2] = molar heat capacity at constant volume; conditions: High-temperature High-pressure adiabatci calorimeter

CCOCC [diethyl ether]
Conditions | Critical density, [1] [kg/m3] | Critical temperature, [1] [K] | molar heat capacity at constant volume, [2] | thermal pressure coefficient, [1] | vapor or sublimation pressure, [1]
416.1 K, Liquid | – | – | 156.77 ± 4.7 J/K/mol | 272 ± 4.1 kPa/K | 1599 ± 48 kPa
425.19 K, Liquid | – | – | 159.36 ± 4.8 J/K/mol | 238 ± 3.6 kPa/K | 1906 ± 57 kPa
437.14 K, Liquid | – | – | 163.81 ± 4.9 J/K/mol | 198 ± 3 kPa/K | 2280 ± 68 kPa
450.6 K, Liquid | – | – | 170.26 ± 5.1 J/K/mol | 148 ± 2.2 kPa/K | 2931 ± 88 kPa
450.77 K, Liquid | – | – | 171.96 ± 5.2 J/K/mol | 148 ± 2.2 kPa/K | 2933 ± 88 kPa
459.61 K, Liquid | – | – | 178.63 ± 5.3 J/K/mol | 106 ± 1.6 kPa/K | 3315 ± 99 kPa
464.79 K, Liquid | – | – | 190.49 ± 5.7 J/K/mol | 81.8 ± 1.2 kPa/K | 3580 ± 110 kPa
466.12 K, Gas | – | – | 190.12 ± 5.7 J/K/mol | 52.3 ± 0.8 kPa/K | –
466.47 K, Liquid | – | – | 203.83 ± 6.2 J/K/mol | 68 ± 1 kPa/K | 3612 ± 110 kPa
466.66 K, Gas | – | – | 208.5 ± 6.3 J/K/mol | 54.3 ± 0.8 kPa/K | –
466.75 K, Liquid | – | – | 210.65 ± 6.3 J/K/mol | 64.5 ± 1 kPa/K | 3601 ± 110 kPa
466.8 K, Liquid | – | – | 218.66 ± 6.6 J/K/mol | 61 ± 1 kPa/K | 3583 ± 110 kPa
466.81 K, Liquid | – | – | 233.48 ± 7.1 J/K/mol and 245.64 ± 7.6 J/K/mol | 59.7 kPa/K and 59.2 kPa/K | 3608 ± 110 kPa and 3576 ± 110 kPa
466.82 K, Gas | – | – | 234.97 ± 7.4 J/K/mol | 55.9 ± 0.9 kPa/K | –
466.83 K, Gas | – | – | 248.6 ± 8.2 J/K/mol | 56.1 ± 0.9 kPa/K | –
466.85 K, Gas | – | – | 264.24 ± 9.1 J/K/mol | 55.9 ± 0.9 kPa/K | –
Liquid, quasi-satatic thermogram technique | 265.1 ± 2 | – | – | – | –
Liquid, quasi-static thermogram technique | – | 466.85 ± 0.2 | – | – | –

[1]
Conditions | mass density
416.1 K, Liquid, Constant volume piezo-calorimeter | 534.6 ± 0.3 kg/m3
425.19 K, Liquid, Constant volume piezo-calorimeter | 517.3 ± 0.3 kg/m3
437.14 K, Liquid, Constant volume piezo-calorimeter | 485.2 ± 0.3 kg/m3
450.6 K, Liquid, Constant volume piezo-calorimeter | 441.5 ± 0.2 kg/m3
450.77 K, Liquid, Constant volume piezo-calorimeter | 440.8 ± 0.2 kg/m3
459.61 K, Liquid, Constant volume piezo-calorimeter | 394.8 ± 0.2 kg/m3
464.79 K, Liquid, Constant volume piezo-calorimeter | 348.2 ± 0.3 kg/m3
466.12 K, Gas, constant volume piezo-calorimeter | 212.6 ± 0.6 kg/m3
466.47 K, Liquid, Constant volume piezo-calorimeter | 310.8 ± 0.8 kg/m3
466.66 K, Gas, constant volume piezo-calorimeter | 233.7 ± 0.8 kg/m3
466.75 K, Liquid, Constant volume piezo-calorimeter | 296.7 ± 0.8 kg/m3
466.8 K, Liquid, Constant volume piezo-calorimeter | 288.3 ± 1.1 kg/m3
466.81 K, Liquid, Constant volume piezo-calorimeter | 278.7 ± 1.5 kg/m3 and 275.7 ± 1.6 kg/m3
466.82 K, Gas, constant volume piezo-calorimeter | 255 ± 1.9 kg/m3
466.83 K, Gas, constant volume piezo-calorimeter | 260.7 ± 2.3 kg/m3
466.85 K, Gas, constant volume piezo-calorimeter | 261.2 ± 2.2 kg/m3

Reference: the NIST ThermoML archive (doi:10.1007/s10765-011-0948-4)
